{
  "source": "patent US20150104868A1",
  "about": "“Methods of Maintaining and Improving Biological Cell Function and Activity” (GARGILL INCORPORATED, priority 2012, published 2015)",
  "key": {"[1]": {"test_system": "Superoxide dismutases (total SOD, SOD1, SOD2)", "test": "SOD activity, expression and protein levels in HUVEC", "assay_type": "cell-based, human", "text": "One of the reactive oxygen species of which the production is likely to be increased during hyperglycemia is the superoxide radical (O2•—), potentially due to an over-activation of the mitochondrial respiratory chain. Superoxide dismutases (SODs) constitute a family of enzymes that effectively reduces the amount of superoxide radicals by turning them into hydrogen peroxide and oxygen. SODs occur in the cytoplasma (copper, zinc SOD or SOD1) and in the mitochondrion (manganese SOD or SOD2). A third form (SOD3 or EC-SOD) is found extracellularly. […] Accordingly, the expression protein and activity levels of SOD2 (which is the inducible SOD) SOD1 and total SOD activity were studied.\nThe total SOD activity (U/mg protein), SOD1 activity, SOD2 activity, SOD2 expression (by RT-PCR), and SOD2 protein (by Western blot) were not affected by HGERT vs HG […]."}, "[2]": {"settings": "in vitro; cited from earlier work"}, "[3]": {"settings": "in vivo, po; cited from earlier work"}},
  "data": [
    {"smiles": "OC[C@@H](O)[C@@H](O)CO", "note": "[ERT, meso-1,2,3,4-tetrahydroxybutane]", "values": [
      {"measurement": "total SOD activity, SOD1 activity, SOD2 activity, SOD2 expression (RT-PCR), SOD2 protein (Western blot)", "setting": "[1]; HGERT vs HG", "value": "not affected"},
      {"measurement": "transcription and protein levels of SOD2", "setting": "[1]; HUVEC", "value": "did not affect transcription or the protein levels of SOD2"},
      {"measurement": "total superoxide dismutase activity", "setting": "[1]; hyperglycemic conditions, effect not significant", "value": "appeared to increase the total superoxide dismutase activity"},
      {"measurement": "hydroxyl radical scavenging", "setting": "[2]", "value": "effective in scavenging hydroxyl radicals"},
      {"measurement": "superoxide or peroxynitrite scavenging activity", "setting": "[2]", "value": "does not possess any superoxide or peroxynitrite scavenging activity"},
      {"measurement": "excretion", "setting": "[3]", "value": "excreted unchanged in the urine"},
      {"measurement": "metabolism", "setting": "[3]", "value": "not metabolized"}
    ]}
  ]
}
